Source: patent US20230129485A1, “SYSTEM AND METHOD FOR DETERMINING MATERIAL PROPERTIES OF MOLECULAR SYSTEMS FROM AN AB-INITIO PARAMETERIZED FORCE-FIELD” (InterX, Inc., priority 2021, published 2023)
Read-outs that look alike come from different tables or passages of the source.

What was measured:
[1] = Free energy of hydration predicted with the QM-parameterized force field model (ARROW FF), classical MD and PIMD simulation in a water box; details: for Arrow error: Table 5, error of Arrow PIMD8 hydration free energy vs experiment; for Arrow PIMD8 Error: absolute error vs Exp (hydration)
Method in brief: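 Classical and PIMD runs (MTS integrator, MTTK barostat at 1 atm) followed minimization and 50 ps equilibration, with 1 ns NPT production per window. Fifteen unequally spaced lambda windows removed all solute-solvent interactions simultaneously in a 32 Å water box. Hydration free energy computed by Bennett acceptance ratio and thermodynamic integration.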

[2] = Free energy of solvation in cyclohexane predicted with the QM-parameterized force field model (ARROW FF), MD and PIMD; details: Table 4; for CHEX Arrow MD Error: error of MD cyclohexane solvation free energy vs experiment; for CHEX Arrow PIMD4 Error: error of PIMD4 cyclohexane solvation free energy vs experiment
Description: Cyclohexane (CHEX) is nonpolar and equilibrates relatively quickly.
Particle-Mesh Ewald (PME) algorithm was used to compute the electrostatic interactions. A 32×32×32 grid mesh and 5th power spline interpolation order can be used to compute the inverse PME sum. 9 Å cutoffs were used to compute the direct PME sum as well as the exchange and dispersion interactions. Bulk corrections were applied to account for distance cut-off of dispersion interactions. Solvation free energies were computed by decoupling the interactions between the solute and the solvent molecules. Electrostatic, exchange-repulsion and dispersion interactions were switched off simultaneously using a lambda-dependent scaling (a scaling factor power=2 was used) and a soft-coring algorithm (maximal soft-coring radius=1.5 Å, soft-coring radius scaling factor power=1). 15 lambda points unequally spaced (X=0, 0.05, 0.1, 0.2, 0.3, 0.4, 0.5, 0.6, 0.7, 0.75, 0.8, 0.85, 0.9, 0.95, 1.0) were used to decouple the solute-solvent intermolecular interactions.
In some simulations of the QM-parameterized force field molecular simulation process, energy minimization (10,000 steps) using the steepest descent algorithm was initially performed on all the simulation systems. This was followed by a 50 ps equilibration and 1 ns production runs in the isothermal-isobaric ensemble (NPT). […] Pressure was maintained at 1 atm using a MTTK barostat (relaxation time=5 ps). A Multiple Time Step (MTS) algorithm was used to integrate the equations of motion both for the classical and path-integral runs. […] The calculations were performed using the QM-parameterized force field model.
Using the QM-parameterized force field model, the QM-parameterized force field device can compute or predict the solvation free energies using both the Bennett acceptance ratio (BAR) and thermodynamic integration (TI) method with <dH/dλ> values interpolated by cubic splines.

[3] = Free energy of hydration predicted by General Amber Force Field (GAFF), from literature; details: Table 5; error of GAFF hydration free energy vs experiment
[4] = Free energy of hydration predicted by polarizable AMOEBA force field, from literature; details: Table 5; error of AMOEBA hydration free energy vs experiment
[5] = Free energy of hydration by COSMO implicit solvent model (MolPro ver. 2012); details: absolute error vs Exp (hydration)
Method in brief: (§1)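 Computed, not measured. COSMO: run in MolPro on the dataset. SMD/PCM: predicted values supplied externally. SMD, PCM, COSMO-RS restricted to the overlap with the QM-parameterized force field molecule set.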

[6] = Free energy of hydration by Solvation Model Dielectric (SMD) implicit solvent model; details: absolute error vs Exp (hydration)
Method in brief: as §1

[7] = Free energy of hydration by Polarizable Continuum Model (PCM); details: absolute error vs Exp (hydration)
Method in brief: as §1

[8] = Free energy of hydration by COSMO-RS
Method in brief: as §1

[9] = experimental, cited from earlier work; for Exp (hydration): Table 5
[10] = experimental, cited from earlier work
[11] = Table 5; free energy of hydration, GAFF prediction taken from literature; cited from earlier work
[12] = Table 5; free energy of hydration, AMOEBA prediction taken from literature; cited from earlier work
[13] = implicit solvent model, values received; cited from earlier work
[14] = implicit solvent model, values received; cited from earlier work; remark: listed apart in the source
[15] = CHEX/H2O partition coefficient (log D) predicted with the QM-parameterized force field model (ARROW FF)
Method in brief: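 Cyclohexane/water partition coefficients were predicted by molecular simulation with a QM-parameterized force field, with bonded force constants and equilibrium values fitted to MP2/aug-cc-pVTZ energies. Solutes carried neutral functional groups, and results from four independent groups were averaged.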

[16] = Table 3; CHEX/H2O partition coefficient, experimental; cited from earlier work
[17] = Table 3, absolute error of MD hydration free energy vs experiment
[18] = Table 3, absolute error of PIMD8 hydration free energy vs experiment
[19] = Table 4, error of MD hydration free energy vs experiment
[20] = Table 4, error of PIMD8 hydration free energy vs experiment
[21] = Table 3, free energy of hydration
[22] = Table 4, neutral amino-acid analogues
[23] = Table 3, free energy of solvation in cyclohexane
[24] = Table 4, solvation free energy in cyclohexane
[25] = Table 3, absolute error of MD log D vs experiment
[26] = Table 3, absolute error of PIMD log D vs experiment

Row | SMILES | water Arrow MD Error [1, 17] | water Arrow PIMD8 Error [1, 18] | water Arrow MD Error [1, 19] | water Arrow PIMD8 Error [1, 20] | Arrow error [1] | Arrow PIMD8 Error [1] | GAFF error [3] | AMOEBA error [4] | COSMO/Molpro Error [5] | SMD Error [6] | PCM Error [7] | COSMO-RS error [8] | water Exp (hydration) [9, 21] | Exp (hydration) ([9]; free energy of hydration) | CHEX Exp (solvation) [10, 23] | GAFF [11] | AMOEBA [12] | SMD free energy of hydration [13] | PCM free energy of hydration [14] | Exp (log D) [16] | also measured
1 | Cc1ccccc1 [Toluene] | 0.83 kcal/mol | 0.10 kcal/mol | 0.83 kcal/mol | 0.10 kcal/mol | 0.10 kcal/mol | 0.10 kcal/mol | 0.18 kcal/mol | 0.64 kcal/mol | 2.41 kcal/mol | 0.59 kcal/mol | 0.71 kcal/mol | 0.12 kcal/mol | -0.89 kcal/mol | -0.89 kcal/mol | -4.90 kcal/mol | -0.71 kcal/mol | -1.53 kcal/mol | -0.30 kcal/mol | -1.60 kcal/mol |  | CHEX Arrow MD Error [2]: 0.94 kcal/mol; CHEX Arrow PIMD4 Error [2]: 0.62 kcal/mol; water Exp (hydration) [9, 22]: -0.89 kcal/mol; CHEX Exp (solvation) [10, 24]: -4.90 kcal/mol
2 | CC(N)=O [Acetamide] | 0.87 kcal/mol | 0.06 kcal/mol | 0.87 kcal/mol | 0.06 kcal/mol | 0.06 kcal/mol | 0.06 kcal/mol | 1.91 kcal/mol | 0.41 kcal/mol | 4.11 kcal/mol | 0.71 kcal/mol | 2.81 kcal/mol | 2.55 kcal/mol | -9.71 kcal/mol | -9.71 kcal/mol | -3.01 kcal/mol | -7.80 kcal/mol | -9.30 kcal/mol | -9.00 kcal/mol | -6.90 kcal/mol |  | CHEX Arrow MD Error [2]: 0.63 kcal/mol; CHEX Arrow PIMD4 Error [2]: 0.58 kcal/mol; water Exp (hydration) [9, 22]: -9.71 kcal/mol; CHEX Exp (solvation) [10, 24]: -3.01 kcal/mol
3 | CCCCCCCC [Octane] | 1.27 kcal/mol | 0.06 kcal/mol |  |  | 0.04 kcal/mol | 0.06 kcal/mol | 0.25 kcal/mol | 1.14 kcal/mol | 3.74 kcal/mol | 0.19 kcal/mol | 3.19 kcal/mol | 0.10 kcal/mol | 2.89 kcal/mol | 2.88 kcal/mol | -5.63 kcal/mol | 3.13 kcal/mol | 1.74 kcal/mol | 2.70 kcal/mol | -0.30 kcal/mol | 6.25 | log D Arrow MD Error [15]: 0.50; log D Arrow PIMD Error [15]: 0.20
4 | Oc1ccccc1 [Phenol] | 1.02 kcal/mol | 0.18 kcal/mol |  |  | 0.18 kcal/mol | 0.18 kcal/mol | 0.95 kcal/mol | 1.57 kcal/mol | 0.92 kcal/mol | 1.42 kcal/mol | 2.62 kcal/mol | 0.62 kcal/mol | -6.62 kcal/mol | -6.62 kcal/mol | -5.56 kcal/mol | -5.67 kcal/mol | -5.05 kcal/mol | -5.20 kcal/mol | -4.00 kcal/mol | −0.78 | log D Arrow MD Error [15, 25]: 0.65; log D Arrow PIMD Error [15, 26]: 0.21
5 | Nc1ccccc1 [Aniline] | 0.17 kcal/mol | 0.06 kcal/mol |  |  | 0.06 kcal/mol | 0.06 kcal/mol | 0.38 kcal/mol | 0.76 kcal/mol | 2.13 kcal/mol | 0.74 kcal/mol | 1.44 kcal/mol | 0.23 kcal/mol | -5.54 kcal/mol | -5.54 kcal/mol | -5.52 kcal/mol | -5.92 kcal/mol | -4.78 kcal/mol | -4.80 kcal/mol | -4.10 kcal/mol | −0.01 | log D Arrow MD Error [15, 25]: 0.18; log D Arrow PIMD Error [15, 26]: 0.13
